# Reference: the supplement of paper PMC10307832
# Tests used:
# Assay in all cases: relative viability (nuclei count vs DMSO), 5 days (fraction); higher = more cells survive
# [1] = tested on: NCI-H1355
# How it was run: (§1)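 Relative viability divides the nuclei count in treated wells by that in vehicle wells. Lung cancer cell lines were seeded in 1536-well plates, dosed by pin tool the next day, and fixed and stained after 5 days in one step with final 0.05% Triton X-100, 1% formaldehyde and 1 ug/ml Hoechst. Dosing was a single drug or a fixed anchor-drug dose plus five library-drug doses (not always all listed) in √10 steps, and values are medians of duplicate plates imaged at 4×.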
# [2] = tested on: NCI-H1792
# How it was run: as §1
# [3] = tested on: NCI-H1563
# How it was run: as §1
# [4] = tested on: SK-MES-1
# How it was run: as §1
# [5] = tested on: RERF-LC-KJ
# How it was run: as §1
# [6] = tested on: NCI-H1915
# How it was run: as §1
# [7] = tested on: SW 900
# How it was run: as §1
# [8] = tested on: NCI-H727
# How it was run: as §1
# [9] = tested on: NCI-H520
# How it was run: as §1
# [10] = tested on: NCI-H661
# How it was run: as §1
# [11] = tested on: NCI-H650
# How it was run: as §1
# [12] = tested on: NCI-H522
# How it was run: as §1
# [13] = tested on: LXF-289
# How it was run: as §1
# [14] = tested on: NCI-H1755
# How it was run: as §1
# [15] = tested on: NCI-H322M
# How it was run: as §1
# [16] = tested on: NCI-H2347
# How it was run: as §1
# [17] = tested on: NCI-H460
# How it was run: as §1
# [18] = tested on: NCI-H441
# How it was run: as §1
# [19] = tested on: NCI-H596
# How it was run: as §1
# [20] = tested on: NCI-H1651
# How it was run: as §1
# [21] = tested on: PC-14
# How it was run: as §1
# [22] = tested on: NCI-H2170
# How it was run: as §1
# [23] = tested on: NCI-H3122
# How it was run: as §1
# [24] = tested on: LCLC-103H
# How it was run: as §1
smiles,measurement,setting,value
Clc1ccc(Nc2nnc(Cc3ccncc3)c3ccccc23)cc1 [Vatalanib] + N=C(N)NC(=N)NCCc1ccccc1 [Phenformin] (partner 250 µM),relative viability,[1]; first compound 0.04 µM,0.511
same,relative viability,[1]; first compound 0.1265 µM,0.419
same,relative viability,[1]; first compound 0.4 µM,0.444
same,relative viability,[1]; first compound 1.265 µM,0.431
same,relative viability,[1]; first compound 4 µM,0.401
same,relative viability,[2]; first compound 0.04 µM,0.257
same,relative viability,[2]; first compound 0.4 µM,0.224
same,relative viability,[2]; first compound 1.265 µM,0.236
same,relative viability,[2]; first compound 4 µM,0.386
same,relative viability,[3]; first compound 0.04 µM,0.641
same,relative viability,[3]; first compound 0.1265 µM,0.673
same,relative viability,[3]; first compound 0.4 µM,0.666
same,relative viability,[3]; first compound 1.265 µM,0.712
same,relative viability,[3]; first compound 4 µM,0.639
same,relative viability,[4]; first compound 0.04 µM,0.659
same,relative viability,[4]; first compound 0.1265 µM,0.638
same,relative viability,[4]; first compound 0.4 µM,0.753
same,relative viability,[4]; first compound 1.265 µM,0.572
same,relative viability,[4]; first compound 4 µM,0.537
same,relative viability,[5]; first compound 0.04 µM,0.479
same,relative viability,[5]; first compound 0.1265 µM,0.41
same,relative viability,[5]; first compound 0.4 µM,0.443
same,relative viability,[5]; first compound 1.265 µM,0.341
same,relative viability,[5]; first compound 4 µM,0.425
same,relative viability,[6]; first compound 0.04 µM,0.374
same,relative viability,[6]; first compound 0.1265 µM,0.345
same,relative viability,[6]; first compound 0.4 µM,0.399
same,relative viability,[6]; first compound 1.265 µM,0.38
same,relative viability,[6]; first compound 4 µM,0.371
same,relative viability,[7]; first compound 0.1265 µM,0.689
same,relative viability,[7]; first compound 0.4 µM,0.539
same,relative viability,[7]; first compound 1.265 µM,0.458
same,relative viability,[7]; first compound 4 µM,0.544
same,relative viability,[8]; first compound 0.04 µM,0.531
same,relative viability,[8]; first compound 0.1265 µM,0.572
same,relative viability,[8]; first compound 0.4 µM,0.519
same,relative viability,[8]; first compound 1.265 µM,0.558
same,relative viability,[8]; first compound 4 µM,0.466
same,relative viability,[9]; first compound 0.04 µM,0.722
same,relative viability,[9]; first compound 0.1265 µM,0.412
same,relative viability,[9]; first compound 0.4 µM,0.83
same,relative viability,[9]; first compound 1.265 µM,0.493
same,relative viability,[9]; first compound 4 µM,0.479
same,relative viability,[10]; first compound 0.04 µM,0.32
same,relative viability,[10]; first compound 0.1265 µM,0.248
same,relative viability,[10]; first compound 0.4 µM,0.304
same,relative viability,[10]; first compound 1.265 µM,0.267
same,relative viability,[10]; first compound 4 µM,0.286
same,relative viability,[11]; first compound 0.04 µM,0.473
same,relative viability,[11]; first compound 0.1265 µM,0.427
same,relative viability,[11]; first compound 1.265 µM,0.446
same,relative viability,[11]; first compound 4 µM,0.439
same,relative viability,[12]; first compound 0.04 µM,0.699
same,relative viability,[12]; first compound 0.1265 µM,0.531
same,relative viability,[12]; first compound 0.4 µM,0.673
same,relative viability,[12]; first compound 1.265 µM,0.623
same,relative viability,[12]; first compound 4 µM,0.597
same,relative viability,[13]; first compound 0.04 µM,0.505
same,relative viability,[13]; first compound 0.1265 µM,0.465
same,relative viability,[13]; first compound 0.4 µM,0.558
same,relative viability,[13]; first compound 1.265 µM,0.53
same,relative viability,[13]; first compound 4 µM,0.539
same,relative viability,[14]; first compound 0.04 µM,0.613
same,relative viability,[14]; first compound 0.1265 µM,0.577
same,relative viability,[14]; first compound 0.4 µM,0.661
same,relative viability,[14]; first compound 1.265 µM,0.596
same,relative viability,[14]; first compound 4 µM,0.603
same,relative viability,[15]; first compound 0.04 µM,0.755
same,relative viability,[15]; first compound 0.1265 µM,0.789
same,relative viability,[15]; first compound 0.4 µM,0.826
same,relative viability,[15]; first compound 1.265 µM,0.685
same,relative viability,[15]; first compound 4 µM,0.759
same,relative viability,[16]; first compound 0.04 µM,0.323
same,relative viability,[16]; first compound 0.1265 µM,0.426
same,relative viability,[16]; first compound 0.4 µM,0.401
same,relative viability,[16]; first compound 1.265 µM,0.266
same,relative viability,[16]; first compound 4 µM,0.389
same,relative viability,[17]; first compound 0.04 µM,0.582
same,relative viability,[17]; first compound 0.1265 µM,0.539
same,relative viability,[17]; first compound 0.4 µM,0.556
same,relative viability,[17]; first compound 1.265 µM,0.51
same,relative viability,[17]; first compound 4 µM,0.432
same,relative viability,[18]; first compound 0.04 µM,0.904
same,relative viability,[18]; first compound 0.1265 µM,0.761
same,relative viability,[18]; first compound 0.4 µM,0.849
same,relative viability,[18]; first compound 1.265 µM,0.729
same,relative viability,[18]; first compound 4 µM,0.819
same,relative viability,[19]; first compound 0.04 µM,0.715
same,relative viability,[19]; first compound 0.1265 µM,0.874
same,relative viability,[19]; first compound 0.4 µM,0.769
same,relative viability,[19]; first compound 1.265 µM,0.767
same,relative viability,[19]; first compound 4 µM,0.662
same,relative viability,[20]; first compound 0.04 µM,0.342
same,relative viability,[20]; first compound 0.1265 µM,0.29
same,relative viability,[20]; first compound 0.4 µM,0.311
same,relative viability,[20]; first compound 1.265 µM,0.312
same,relative viability,[20]; first compound 4 µM,0.405
same,relative viability,[21]; first compound 0.04 µM,0.552
same,relative viability,[21]; first compound 0.1265 µM,0.466
same,relative viability,[21]; first compound 1.265 µM,0.458
same,relative viability,[21]; first compound 4 µM,0.541
same,relative viability,[22]; first compound 0.04 µM,0.437
same,relative viability,[22]; first compound 0.1265 µM,0.476
same,relative viability,[22]; first compound 0.4 µM,0.469
same,relative viability,[22]; first compound 1.265 µM,0.405
same,relative viability,[22]; first compound 4 µM,0.353
same,relative viability,[23]; first compound 0.04 µM,0.401
same,relative viability,[23]; first compound 0.1265 µM,0.365
same,relative viability,[23]; first compound 1.265 µM,0.316
same,relative viability,[23]; first compound 4 µM,0.323
same,relative viability,[24]; first compound 0.04 µM,0.339
same,relative viability,[24]; first compound 0.1265 µM,0.306
same,relative viability,[24]; first compound 0.4 µM,0.373
same,relative viability,[24]; first compound 1.265 µM,0.363
same,relative viability,[24]; first compound 4 µM,0.316
